Laboratory results: patent publication US6358885B1, “Substituted phenylheterocyclic herbicides” (Mississippi State University, priority 1992, dated 2002)

Key:
Assay in all cases: Test B preemergence/postemergence greenhouse plant response rating 0 to 10
soybean = assay type: in vivo, Glycine max; conditions: for Plant response rating, Soybean: 0 to 10 scale
How it was run: (§1)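 Test chemicals were sprayed onto freshly planted seed and, concurrently, onto young plants between the one and four leaf stage. After a twelve- to sixteen-day greenhouse period, each species was visually compared with untreated controls.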

corn = assay type: in vivo, Zea mays; conditions: for Plant response rating, Corn: 0 to 10 scale
How it was run: as §1

purple nutsedge = assay type: in vivo, Cyperus rotundus; conditions: for Plant response rating, Nutsedge: 0 to 10 scale
How it was run: as §1

cocklebur = assay type: in vivo, Xanthium pensylvanicum; conditions: for Plant response rating, Cocklebur: Rate 50 g/ha, 0 to 10 scale
How it was run: as §1

velvetleaf = assay type: in vivo, Abutilon theophrasti; conditions: for Plant response rating, Velvetleaf: 0 to 10 scale
How it was run: as §1

cotton = assay type: in vivo, Gossypium hirsutum; conditions: for Plant response rating, Cotton: 0 to 10 scale
How it was run: as §1

wild oat = assay type: in vivo, Avena fatua; conditions: for Plant response rating, Wild oat: 0 to 10 scale
How it was run: as §1

rice = assay type: in vivo, Oryza sativa; conditions: for Plant response rating, Rice: 0 to 10 scale
How it was run: as §1

cheatgrass = assay type: in vivo, Bromus secalinus; conditions: for Plant response rating, Cheatgrass: 0 to 10 scale
How it was run: as §1

rape = assay type: in vivo, Brassica napus; conditions: for Plant response rating, Rape: 0 to 10 scale
How it was run: as §1

giant foxtail = assay type: in vivo, Setaria faberii; conditions: for Plant response rating, Giant foxtail: 0 to 10 scale
How it was run: as §1

barnyardgrass = assay type: in vivo, Echinochloa crus-galli; conditions: for Plant response rating, Barnyardgrass: 0 to 10 scale
How it was run: as §1

sugar beet = assay type: in vivo, Beta vulgaris; conditions: for Plant response rating, Sugar beet: 0 to 10 scale
How it was run: as §1

barley = assay type: in vivo, Hordeum vulgare; conditions: for Plant response rating, Barley: 0 to 10 scale
How it was run: as §1

wild buckwheat = assay type: in vivo, Polygonum convolvulus; conditions: for Plant response rating, Wild buckwheat: 0 to 10 scale
How it was run: as §1

crabgrass = assay type: in vivo, Digitaria spp.; conditions: for Plant response rating, Crabgrass: 0 to 10 scale
How it was run: as §1

morningglory = assay type: in vivo, Ipomoea hederacea; conditions: for Plant response rating, Morningglory: 0 to 10 scale
How it was run: as §1

wheat = assay type: in vivo, Triticum aestivum; conditions: for Plant response rating, Wheat: 0 to 10 scale
How it was run: as §1

bedstraw = assay type: in vivo, Galium aparine; conditions: for Plant response rating, Bedstraw: 0 to 10 scale
How it was run: as §1

lambsquarters = assay type: in vivo, Chenopodium album; conditions: for Plant response rating, Lambsquarter: 0 to 10 scale
How it was run: as §1

chickweed = assay type: in vivo, Stellaria media; conditions: for Plant response rating, Chickweed: 0 to 10 scale
How it was run: as §1

sorghum = assay type: in vivo, Sorghum bicolor; conditions: for Plant response rating, Sorghum: 0 to 10 scale
How it was run: as §1

blackgrass = assay type: in vivo, Alopecurus myosuroides; conditions: for Plant response rating, Blackgrass: 0 to 10 scale
How it was run: as §1

FCCCOc1cc(-c2nn3c(c2Cl)CCCC3)c(F)cc1Cl [Compound 79]
Plant response rating, Soybean (soybean; POSTEMERGENCE, Rate 50 g/ha): 7 | Plant response rating, Soybean (soybean; PREEMERGENCE, Rate 50 g/ha): 0 | Plant response rating (0 to 10 scale), Soybean (soybean; PREEMERGENCE, Rate 200 g/ha): 0 | Plant response rating, Soybean (soybean; Rate 200 g/ha, POSTEMERGENCE): 8 | Plant response rating, Corn (corn; POSTEMERGENCE, Rate 50 g/ha): 3 | Plant response rating, Corn (corn; PREEMERGENCE, Rate 50 g/ha): 0 | Plant response rating (0 to 10 scale), Corn (corn; PREEMERGENCE, Rate 200 g/ha): 0 | Plant response rating, Corn (corn; Rate 200 g/ha, POSTEMERGENCE): 5 | Plant response rating, Nutsedge (purple nutsedge; POSTEMERGENCE, Rate 50 g/ha): 0 | Plant response rating, Nutsedge (purple nutsedge; PREEMERGENCE, Rate 50 g/ha): 0 | Plant response rating (0 to 10 scale), Nutsedge (purple nutsedge; PREEMERGENCE, Rate 200 g/ha): 0 | Plant response rating, Nutsedge (purple nutsedge; Rate 200 g/ha, POSTEMERGENCE): 0 | Plant response rating, Cocklebur (cocklebur; POSTEMERGENCE): 8 | Plant response rating, Cocklebur (cocklebur; PREEMERGENCE): 0 | Plant response rating (0 to 10 scale), Cocklebur (cocklebur; PREEMERGENCE, Rate 200 g/ha): 6 | Plant response rating, Velvetleaf (velvetleaf; POSTEMERGENCE, Rate 50 g/ha): 8 | Plant response rating, Velvetleaf (velvetleaf; PREEMERGENCE, Rate 50 g/ha): 5 | Plant response rating (0 to 10 scale), Velvetleaf (velvetleaf; PREEMERGENCE, Rate 200 g/ha): 10 | Plant response rating, Velvetleaf (velvetleaf; Rate 200 g/ha, POSTEMERGENCE): 10 | Plant response rating, Cotton (cotton; POSTEMERGENCE, Rate 50 g/ha): 10 | Plant response rating, Cotton (cotton; PREEMERGENCE, Rate 50 g/ha): 0 | Plant response rating (0 to 10 scale), Cotton (cotton; PREEMERGENCE, Rate 200 g/ha): 0 | Plant response rating, Cotton (cotton; Rate 200 g/ha, POSTEMERGENCE): 10 | Plant response rating, Wild oat (wild oat; POSTEMERGENCE, Rate 50 g/ha): 4 | Plant response rating, Wild oat (wild oat; PREEMERGENCE, Rate 50 g/ha): 3 | Plant response rating (0 to 10 scale), Wild oat (wild oat; PREEMERGENCE, Rate 200 g/ha): 6 | Plant response rating, Wild oat (wild oat; Rate 200 g/ha, POSTEMERGENCE): 5 | Plant response rating, Rice (rice; POSTEMERGENCE, Rate 50 g/ha): 5 | Plant response rating, Rice (rice; PREEMERGENCE, Rate 50 g/ha): 0 | Plant response rating (0 to 10 scale), Rice (rice; PREEMERGENCE, Rate 200 g/ha): 0 | Plant response rating, Rice (rice; Rate 200 g/ha, POSTEMERGENCE): 6 | Plant response rating, Cheatgrass (cheatgrass; POSTEMERGENCE, Rate 50 g/ha): 3 | Plant response rating, Cheatgrass (cheatgrass; PREEMERGENCE, Rate 50 g/ha): 2 | Plant response rating (0 to 10 scale), Cheatgrass (cheatgrass; PREEMERGENCE, Rate 200 g/ha): 4 | Plant response rating, Cheatgrass (cheatgrass; Rate 200 g/ha, POSTEMERGENCE): 4 | Plant response rating, Rape (rape; POSTEMERGENCE, Rate 50 g/ha): 8 | Plant response rating, Rape (rape; PREEMERGENCE, Rate 50 g/ha): 3 | Plant response rating (0 to 10 scale), Rape (rape; PREEMERGENCE, Rate 200 g/ha): 6 | Plant response rating, Rape (rape; Rate 200 g/ha, POSTEMERGENCE): 9 | Plant response rating, Giant foxtail (giant foxtail; POSTEMERGENCE, Rate 50 g/ha): 4 | Plant response rating, Giant foxtail (giant foxtail; PREEMERGENCE, Rate 50 g/ha): 3 | Plant response rating (0 to 10 scale), Giant foxtail (giant foxtail; PREEMERGENCE, Rate 200 g/ha): 9 | Plant response rating, Giant foxtail (giant foxtail; Rate 200 g/ha, POSTEMERGENCE): 6 | Plant response rating, Barnyardgrass (barnyardgrass; POSTEMERGENCE, Rate 50 g/ha): 4 | Plant response rating, Barnyardgrass (barnyardgrass; PREEMERGENCE, Rate 50 g/ha): 3 | Plant response rating (0 to 10 scale), Barnyardgrass (barnyardgrass; PREEMERGENCE, Rate 200 g/ha): 6 | Plant response rating, Barnyardgrass (barnyardgrass; Rate 200 g/ha, POSTEMERGENCE): 7 | Plant response rating, Sugar beet (sugar beet; POSTEMERGENCE, Rate 50 g/ha): 10 | Plant response rating, Sugar beet (sugar beet; PREEMERGENCE, Rate 50 g/ha): 9 | Plant response rating (0 to 10 scale), Sugar beet (sugar beet; PREEMERGENCE, Rate 200 g/ha): 10 | Plant response rating, Sugar beet (sugar beet; Rate 200 g/ha, POSTEMERGENCE): 10 | Plant response rating, Barley (barley; POSTEMERGENCE, Rate 50 g/ha): 4 | Plant response rating, Barley (barley; PREEMERGENCE, Rate 50 g/ha): 0 | Plant response rating (0 to 10 scale), Barley (barley; PREEMERGENCE, Rate 200 g/ha): 2 | Plant response rating, Barley (barley; Rate 200 g/ha, POSTEMERGENCE): 4 | Plant response rating, Wild buckwheat (wild buckwheat; POSTEMERGENCE, Rate 50 g/ha): 10 | Plant response rating, Wild buckwheat (wild buckwheat; PREEMERGENCE, Rate 50 g/ha): 0 | Plant response rating (0 to 10 scale), Wild buckwheat (wild buckwheat; PREEMERGENCE, Rate 200 g/ha): 9 | Plant response rating, Wild buckwheat (wild buckwheat; Rate 200 g/ha, POSTEMERGENCE): 10 | Plant response rating, Crabgrass (crabgrass; POSTEMERGENCE, Rate 50 g/ha): 3 | Plant response rating, Crabgrass (crabgrass; PREEMERGENCE, Rate 50 g/ha): 4 | Plant response rating (0 to 10 scale), Crabgrass (crabgrass; PREEMERGENCE, Rate 200 g/ha): 6 | Plant response rating, Crabgrass (crabgrass; Rate 200 g/ha, POSTEMERGENCE): 5 | Plant response rating, Morningglory (morningglory; POSTEMERGENCE, Rate 50 g/ha): 10 | Plant response rating, Morningglory (morningglory; PREEMERGENCE, Rate 50 g/ha): 0 | Plant response rating (0 to 10 scale), Morningglory (morningglory; PREEMERGENCE, Rate 200 g/ha): 7 | Plant response rating, Morningglory (morningglory; Rate 200 g/ha, POSTEMERGENCE): 10 | Plant response rating, Wheat (wheat; POSTEMERGENCE, Rate 50 g/ha): 5 | Plant response rating, Wheat (wheat; PREEMERGENCE, Rate 50 g/ha): 0 | Plant response rating (0 to 10 scale), Wheat (wheat; PREEMERGENCE, Rate 200 g/ha): 2 | Plant response rating, Wheat (wheat; Rate 200 g/ha, POSTEMERGENCE): 6 | Plant response rating, Bedstraw (bedstraw; POSTEMERGENCE, Rate 50 g/ha): 5 | Plant response rating, Bedstraw (bedstraw; PREEMERGENCE, Rate 50 g/ha): 2 | Plant response rating (0 to 10 scale), Bedstraw (bedstraw; PREEMERGENCE, Rate 200 g/ha): 7 | Plant response rating, Bedstraw (bedstraw; Rate 200 g/ha, POSTEMERGENCE): 7 | Plant response rating, Lambsquarter (lambsquarters; POSTEMERGENCE, Rate 50 g/ha): 9 | Plant response rating, Lambsquarter (lambsquarters; PREEMERGENCE, Rate 50 g/ha): 9 | Plant response rating (0 to 10 scale), Lambsquarter (lambsquarters; PREEMERGENCE, Rate 200 g/ha): 10 | Plant response rating, Lambsquarter (lambsquarters; Rate 200 g/ha, POSTEMERGENCE): 10 | Plant response rating, Chickweed (chickweed; POSTEMERGENCE, Rate 50 g/ha): 4 | Plant response rating, Chickweed (chickweed; PREEMERGENCE, Rate 50 g/ha): 0 | Plant response rating (0 to 10 scale), Chickweed (chickweed; PREEMERGENCE, Rate 200 g/ha): 3 | Plant response rating, Chickweed (chickweed; Rate 200 g/ha, POSTEMERGENCE): 5 | Plant response rating, Sorghum (sorghum; POSTEMERGENCE, Rate 50 g/ha): 6 | Plant response rating, Sorghum (sorghum; PREEMERGENCE, Rate 50 g/ha): 0 | Plant response rating (0 to 10 scale), Sorghum (sorghum; PREEMERGENCE, Rate 200 g/ha): 0 | Plant response rating, Sorghum (sorghum; Rate 200 g/ha, POSTEMERGENCE): 7 | Plant response rating, Blackgrass (blackgrass; POSTEMERGENCE, Rate 50 g/ha): 3 | Plant response rating, Blackgrass (blackgrass; PREEMERGENCE, Rate 50 g/ha): 1 | Plant response rating (0 to 10 scale), Blackgrass (blackgrass; PREEMERGENCE, Rate 200 g/ha): 5 | Plant response rating, Blackgrass (blackgrass; Rate 200 g/ha, POSTEMERGENCE): 5
